The compounds below were run against Tubulin (Bos taurus, UniProt Q6B856+Q862L2+Q862F3) (assay: In vitro inhibition of purified bovine brain tubulin polymerisation in the absence of microtubule-associated proteins.).

Point of comparison: COc1cc2c(cc1O)CCc1cc(OC)c(OC)c(OC)c1-2, IC50 0.000104 M. Against it:
- COc1ccc(Cc2cc(OC)c(OC)c(OC)c2)cc1O — 69-fold lower, 1.5e-06 M
- COc1ccc(CCCCc2cc(OC)c(OC)c(OC)c2)cc1O — 18-fold lower, 5.8e-06 M
- COc1ccc(CCCc2cc(OC)c(OC)c(OC)c2)cc1O — 43-fold lower, 2.4e-06 M
- COc1ccc(CCc2cc(OC)c(OC)c(OC)c2)cc1O — 74-fold lower, 1.4e-06 M
- COc1cc2c(cc1O)CCCc1cc(OC)c(OC)c(OC)c1-2 — 20-fold lower, 5.3e-06 M
- COc1ccc(-c2ccc(OC)c(=O)cc2)c(OC)c1OC — 14-fold lower, 7.5e-06 M
- COc1cc(C2CCCc3cc4c(cc32)OCO4)cc(OC)c1OC (stereo unspecified) — 43-fold lower, 2.4e-06 M
- COc1ccc(-c2ccc3c(c2)OCO3)c(OC)c1OC — within 1.5-fold, 0.00015 M
- COc1cc(-c2ccc(OC)c(OC)c2OC)ccc1O — within 1.5-fold, 0.000098 M
- COc1ccc(CC(OC(C)=O)c2cc(OC)c(OC)c(OC)c2)cc1O (stereo unspecified) — 21-fold lower, 5e-06 M
- COc1cc(C2CCc3cc4c(cc32)OCO4)cc(OC)c1OC (stereo unspecified) — 8.7-fold lower, 0.000012 M
- COc1cc(Cc2ccc3c(c2)OCO3)cc(OC)c1OC — 1.6-fold lower, 0.000067 M

For COc1cc2c(c(OC)c1OC)C(c1ccc3c(c1)OCO3)CC2 (stereo unspecified), the IC50 was greater than 0.0002 M.
COc1cc2c(c(OC)c1OC)C(c1ccc3c(c1)OCO3)CCC2 (stereo unspecified) showed an IC50 greater than 0.0002 M.
Compound COc1cc2c(cc1O)CCCCc1cc(OC)c(OC)c(OC)c1-2 has an IC50 greater than 0.000125 M.

Source: ChEMBL document CHEMBL1125985, “Tubulin binding of conformationally restricted bis-aryl compounds” (Bioorg Med Chem Lett, 1991)
